Measurements as given in ChEMBL document CHEMBL1201862, “PubChem BioAssay data set” (2004).
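1) Cells in 96-well plates. 2) Compound, 48 h, 5 concentrations. 3) Linear interpolation between surrounding doses. 4) Unreached endpoint = highest concentration. GI50: concentration for 50% inhibition of growth.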 Activity calls are given as the source filed them. Cut-off read from the data, not from the text of the source: active = GI50 up to about 1.1 µM and inactive = higher.

How the values were obtained:
Assay in all cases: NCI-60 cell line screen, 48 h
HCC 2998 = test system: HCC 2998
SNB-75 = test system: SNB-75
SK-MEL-28 = test system: SK-MEL-28
K562 = test system: K562
SF-268 = test system: SF-268
UACC-62 = test system: UACC-62
SK-MEL-2 = test system: SK-MEL-2
NCI-H226 = test system: NCI-H226
SF-295 = test system: SF-295
SNB-19 = test system: SNB-19
HOP-92 = test system: HOP-92
ACHN = test system: ACHN
KM12 = test system: KM12
NCI-H460 = test system: NCI-H460
HCT-116 = test system: HCT-116
HOP-62 = test system: HOP-62
SF-539 = test system: SF-539
DU-145 = test system: DU-145
MCF7 = test system: MCF7

Measured: GI50

CCCCCCCCCCCCCCCCCC[N+](C)(C)Cc1ccc(C[N+](C)(C)CCCCCCCCCCCCCCCCCC)cc1
inactive: HCC 2998 26.2 µM | SNB-75 3.15 µM | SK-MEL-28 18.1 µM | K562 45.1 µM | SF-268 21.7 µM | UACC-62 21.9 µM | SK-MEL-2 24.1 µM | NCI-H226 5.53 µM | SF-295 11.3 µM | SNB-19 14.1 µM | HOP-92 5.26 µM | ACHN 10.4 µM | KM12 12.4 µM | NCI-H460 17.6 µM | HCT-116 14.2 µM | HOP-62 4.41 µM

COC(=O)c1c(CC#N)cccc1CC#N
inactive: HCC 2998 > 100 µM | SNB-75 > 100 µM | K562 > 100 µM | SF-268 > 100 µM | UACC-62 > 100 µM | SK-MEL-2 > 100 µM | NCI-H226 > 100 µM | SF-295 > 100 µM | SNB-19 > 100 µM | HOP-92 > 100 µM | ACHN > 100 µM | SF-539 > 100 µM | KM12 > 100 µM | NCI-H460 > 100 µM | HCT-116 > 100 µM | HOP-62 > 100 µM

OCCN1CCN2C=C(C3CCCC4N(CCO)CCN34)CCC21 (configuration not stated)
inactive: HCC 2998 > 100 µM | SNB-75 34.8 µM | SK-MEL-28 42 µM | K562 11.6 µM | SF-268 49.8 µM | UACC-62 28.1 µM | SK-MEL-2 23.5 µM | NCI-H226 > 91 µM | SF-295 98.4 µM | SNB-19 > 100 µM | HOP-92 > 60.8 µM | ACHN > 49.2 µM | SF-539 33.7 µM | KM12 > 95.7 µM | NCI-H460 > 100 µM | HCT-116 24.9 µM | HOP-62 > 100 µM

COc1ccc(-c2[nH]c3ccccc3c2CCNS(=O)(=O)c2ccc(C)cc2)cc1
inactive: HCC 2998 9.68 µM | SNB-75 > 10 µM | SK-MEL-28 > 10 µM | K562 5.06 µM | SF-268 > 10 µM | UACC-62 > 8.39 µM | SK-MEL-2 > 10 µM | NCI-H226 > 7.6 µM | SF-295 > 8.41 µM | SNB-19 > 10 µM | HOP-92 > 10 µM | ACHN > 8.59 µM | SF-539 > 10 µM | KM12 6.82 µM | NCI-H460 6.17 µM | HCT-116 > 8.85 µM | HOP-62 > 10 µM

Cc1nc2ccccc2c(=O)n1-c1ccccc1F
inactive: HCC 2998 > 100 µM | SNB-75 30.2 µM | SK-MEL-28 > 100 µM | K562 > 100 µM | SF-268 > 100 µM | UACC-62 > 100 µM | SK-MEL-2 > 100 µM | NCI-H226 > 100 µM | SF-295 > 100 µM | SNB-19 > 100 µM | HOP-92 > 100 µM | ACHN > 100 µM | SF-539 > 100 µM | KM12 > 100 µM | NCI-H460 > 100 µM | HCT-116 > 100 µM | HOP-62 > 100 µM

Cc1ccc(S(=O)(=O)N2CCC3(C(/C=C/c4ccccc4)=Nc4ccccc43)C2c2ccccc2)cc1 (configuration not stated)
inactive: HCC 2998 > 100 µM | SNB-75 87.3 µM | SK-MEL-28 > 100 µM | K562 21.3 µM | SF-268 > 100 µM | UACC-62 > 100 µM | NCI-H226 37.9 µM | SF-295 > 100 µM | SNB-19 > 100 µM | HOP-92 > 100 µM | ACHN > 100 µM | SF-539 > 100 µM | KM12 > 100 µM | NCI-H460 > 100 µM | HCT-116 > 100 µM | HOP-62 63.5 µM

N#C/C(=C1\OC(=N)C(c2ccc(Cl)cc2)=C1O)c1ccc(Cl)cc1
inactive: HCC 2998 17.1 µM | SNB-75 17.5 µM | SK-MEL-28 26.5 µM | K562 23.5 µM | SF-268 36.6 µM | UACC-62 14.2 µM | NCI-H226 10 µM | SF-295 15.8 µM | SNB-19 19.6 µM | HOP-92 17.9 µM | ACHN 17.6 µM | SF-539 14.5 µM | KM12 16.6 µM | NCI-H460 17.3 µM | HCT-116 17.3 µM | HOP-62 19.1 µM

C=C(CO)CC(O)c1cc(OC)ccc1OC (configuration not stated)
inactive: HCC 2998 > 100 µM | SNB-75 > 100 µM | SK-MEL-28 > 100 µM | K562 > 100 µM | SF-268 > 100 µM | UACC-62 > 100 µM | SK-MEL-2 > 100 µM | NCI-H226 > 100 µM | SF-295 > 100 µM | SNB-19 > 100 µM | HOP-92 > 100 µM | ACHN > 100 µM | SF-539 > 100 µM | KM12 > 100 µM | NCI-H460 > 100 µM | HOP-62 > 100 µM

Cc1cc(C)c(N[S+]([O-])c2cccc([N+](=O)[O-])c2)c(C)c1 (configuration not stated)
inactive: DU-145 > 100 µM | SK-MEL-28 > 100 µM | K562 > 100 µM | SF-268 > 100 µM | NCI-H226 > 100 µM | SF-295 > 100 µM | SNB-19 > 100 µM | HOP-92 > 100 µM | ACHN > 100 µM | SF-539 > 100 µM | KM12 > 100 µM | NCI-H460 > 100 µM | MCF7 > 100 µM | HOP-62 > 100 µM

Oc1ccc(-c2csc(N/N=C3\NC/C(=C/c4ccc5c(c4)OCO5)S3)n2)cc1O
inactive: HCC 2998 40.6 µM | SNB-75 1.73 µM | DU-145 26.7 µM | SK-MEL-28 11.9 µM | SK-MEL-2 10 µM | NCI-H226 43.5 µM | SF-295 43.2 µM | SNB-19 14.4 µM | HOP-92 38.5 µM | ACHN 17 µM | SF-539 3.18 µM | KM12 17.3 µM | NCI-H460 31 µM | HCT-116 29.3 µM | MCF7 6.43 µM | HOP-62 22.1 µM

CC(=O)OC[C@]1(O)CC[C@@]23CC1C[C@@H]2CCC1C(C)(C)CCC[C@@]13C (some centres not stated)
inactive: HCC 2998 17.4 µM | SNB-75 16.1 µM | SK-MEL-28 14.8 µM | K562 4.76 µM | SF-268 14.9 µM | UACC-62 13.4 µM | NCI-H226 15.8 µM | SF-295 17.6 µM | SNB-19 14.5 µM | HOP-92 14.4 µM | ACHN 15.7 µM | SF-539 16.4 µM | KM12 13 µM | NCI-H460 14.7 µM | HCT-116 11.9 µM | HOP-62 17.4 µM

COc1ccn(CC(=O)c2cc3ccccc3[nH]2)c(=O)n1
inactive: HCC 2998 > 100 µM | SNB-75 > 100 µM | DU-145 > 100 µM | SK-MEL-28 > 100 µM | K562 > 100 µM | SF-268 > 100 µM | UACC-62 > 100 µM | SK-MEL-2 > 100 µM | NCI-H226 > 100 µM | SF-295 > 100 µM | SNB-19 > 100 µM | HOP-92 49.7 µM | ACHN > 100 µM | SF-539 > 100 µM | KM12 > 100 µM | NCI-H460 > 100 µM | HCT-116 > 100 µM | MCF7 > 100 µM | HOP-62 > 100 µM

C#CCCCC(=C)C[C@@H]1OC(=O)[C@H](C)[C@@H]1O
inactive: HCC 2998 > 100 µM | SNB-75 > 100 µM | DU-145 > 100 µM | SK-MEL-28 > 100 µM | K562 > 100 µM | SK-MEL-2 > 100 µM | SF-295 > 100 µM | SNB-19 > 100 µM | HOP-92 > 100 µM | ACHN > 100 µM | KM12 > 100 µM | NCI-H460 > 100 µM | HCT-116 > 100 µM | MCF7 > 100 µM | HOP-62 > 100 µM

Cc1nc(Nc2ccc(Cl)cc2)sc1C(=O)NNC(=S)NN
inactive: HCC 2998 15.5 µM | SNB-75 32.7 µM | SK-MEL-28 19.3 µM | K562 27.3 µM | SF-268 21.1 µM | UACC-62 17.2 µM | SK-MEL-2 18.5 µM | NCI-H226 19.1 µM | SF-295 17.5 µM | SNB-19 18.9 µM | HOP-92 26.1 µM | ACHN 19.5 µM | SF-539 17.5 µM | KM12 20.1 µM | NCI-H460 19.7 µM | HCT-116 17 µM | HOP-62 18.8 µM

CCCCCCCCCCCCCC(=O)OCC1OC(n2cc(F)c(=O)[nH]c2=O)C(NC(=O)OCc2ccccc2)C(OC(=O)CCCCCCCCCCCCC)C1O (configuration not stated)
inactive: HCC 2998 > 100 µM | SNB-75 > 100 µM | SK-MEL-28 > 100 µM | K562 > 100 µM | SF-268 > 100 µM | UACC-62 > 100 µM | SK-MEL-2 > 100 µM | NCI-H226 > 100 µM | SF-295 22.9 µM | SNB-19 > 100 µM | HOP-92 > 100 µM | ACHN > 100 µM | SF-539 > 100 µM | KM12 > 100 µM | NCI-H460 > 100 µM | HCT-116 > 100 µM | HOP-62 > 100 µM

COc1ccc2c(c1)[n+]([O-])c(C(=O)C/C(=N/NC(=O)C[N+](C)(C)C)C(=O)Nc1cccc(C)c1C)c(C)[n+]2[O-]
inactive: HCC 2998 > 100 µM | SNB-75 > 100 µM | SK-MEL-28 > 100 µM | K562 > 100 µM | SF-268 > 100 µM | UACC-62 > 100 µM | SK-MEL-2 > 100 µM | NCI-H226 > 100 µM | SF-295 > 100 µM | SNB-19 > 100 µM | HOP-92 59 µM | ACHN > 100 µM | SF-539 > 100 µM | KM12 6.34 µM | NCI-H460 > 100 µM | HCT-116 > 100 µM | HOP-62 > 100 µM
